pIC50: −log10 of the molar value. Where a name gives a salt, the structure may show the parent alone. Read-outs that look alike come from different tables or passages of the source.
Key:
[1] = biological target: ALPK1 (Homo sapiens (Human), UniProt Q96QP1); assay: ALPK1 in vitro kinase assay (HTRF of TIFA phosphorylation); type: biochemical
Method: ALPK1 kinase activity was measured in an in vitro assay using ADP-Heptose as the ALPK1 ligand and activator of its kinase activity and TIFA protein as the ALPK1 phosphorylation substrate. Since phosphorylated TIFA proteins oligomerize, Homogeneous Time-Resolved Fluorescence (HTRF) was used to measure protein:protein interaction between HA-tagged TIFA proteins as an indicator of TIFA phosphorylation.
In brief, dose-response studies were performed with HEK293 cells cultured in Dulbecco's Modified Eagle Medium (DMEM) supplemented 10% fetal bovine serum (FBS, Hyclone™) containing antibiotics (pen/strep, G418) in 384-well assay plates. Each well contained 0.1 mg TIFA, ALPK1 (2 nM final concentration in reaction mixture) and kinase buffer (100 mM of HEPES pH 7.4, 4 mM DTT, 40 mM MgCl2, 20 mM of β-Glycerol phosphate disodium salt, 0.4 mM of Na3VO4, 0.16 mg/mL). Titrations of the test compounds were prepared in dimethylsulphoxide (DMSO). The reaction was initiated by addition of ATP and ADP-Heptose.
For HTRF, samples were incubated with a Tb cryptate-labeled anti-HA antibody for capturing HA-tagged proteins according to the manufacturer's instructions (PerkinElmer™, CisBio™) and the fluorescence signal was quantified (Tecan Infinite F NANO+). HTRF signals were calculated as the HTRF ratio (ratio of fluorescence measured at 665 nm and 620 nm)×104 (thereby using the signal at 620 nm as an internal standard).
IC50 values were determined using 3- or 4-parameter logistic equation using GraphPad Prism version 6.00. The reference compound, A027, was used as a positive control for each plate.

[2] = tested on: ALPK1-dependent NFκB reporter gene activation; assay: NFκB gene reporter alkaline phosphatase assay in HEK293 G9 cells; type: cell-based, human; conditions: read-out: NFkB assay IC50
Method: An alkaline phosphatase reporter assay system was used to measure inhibition of ALPK1-dependent NFκB reporter gene activation. Briefly, HEK293 cells stably expressing an NF-kB reporter (referred to herein as “G9 cells”) were maintained in DMEM as described above. For the assay, cells were seeded into 96-well plates at a density of 10,000 cells/well in Freestyle-M 293 Expression Medium (ThermoFisher), and allowed to attach overnight. […] NFkB gene activation was detected using the chromogenic substrate, para-nitrophenyl phosphate (pNPP) according to the manufacturer's protocols (pNPP Phosphatase Assay, Beyotine Biotechnology).

[3] = tested on: ALPK1-dependent innate immunity gene expression in PBMC; assay: Inhibition of ALPK1 in PBMC cells (innate immunity gene mRNA, RT-PCR); type: in vivo, Sprague-Dawley (SD) rats; conditions: SD rats, 10 mpk oral, 2 h before ip ALPK1 agonist, blood 3 h later, compared with vehicle group
Method: We examined whether ALPK1 inhibitors can suppress ALPK1-dependent activation of a set of such genes in rats. […] PBMCs were collected and gene expression analyzed, as described in more detail below.
After 3 hours administration of the ALPK1 agonist, the blood was collected from heart, and PBMC were extracted from each group.

[4] = tested on: ALPK1-dependent innate immunity gene expression; assay: Inhibition of ALPK1 in coronary artery, aorta and heart muscle (innate immunity gene mRNA, RT-PCR); type: in vivo, Sprague-Dawley (SD) rats; conditions: SD rats, 40 mpk oral, 2 h before ip ALPK1 agonist, tissue 3 h later, compared with vehicle group
[5] = tested on: ALPK1-TIFA-IL1β pathway in THP-1-derived macrophage cells; assay: PMA-differentiated THP-1 cell based assay (IL1β mRNA after ALPK1 agonist); conditions: Homo sapiens; PMA-differentiated THP-1 cells, 2 h pretreatment, 4 h ALPK1 agonist; read-out: IC50 of IL1β mRNA induced by ALPK1 activation
Method: Peripheral blood mononuclear cells (PBMCs) from Kawasaki patients show activation of ALPK1-TIFA-IL1β pathway. […] THP-1 cells were cultured in RPMI 1640 containing 10% heat inactivated FBS, penicillin (100 units/ml) and streptomycin ([…]), and maintained in a humidified incubator with 95% atmospheric air and 5% CO2. Prior to the experiment, THP-1 cells were seeded into 24-well flat-bottom plate at a cell density of […]. Phorbol myristate acetate (PMA; 50 ng/mil) was used to treat THP-i cells for 48 h, and then THP-1-derived macrophages were obtained. […] Total RNA was extracted using the TRIzol method and reverse-transcribed. The mRNA expression levels IL1β were detected by SYBR green gene expression assays. Expression levels of mRNA were normalized to GAPDH. Relative expression was calculated by comparing to vehicle control and the values were plotted as fold induction. All activity results were expressed as the mean of triplicate determinations.

[6] = ADP-Heptose activated ALPK1, TIFA substrate, HTRF

Chain of ALPK1 (Q96QP1 whole entry): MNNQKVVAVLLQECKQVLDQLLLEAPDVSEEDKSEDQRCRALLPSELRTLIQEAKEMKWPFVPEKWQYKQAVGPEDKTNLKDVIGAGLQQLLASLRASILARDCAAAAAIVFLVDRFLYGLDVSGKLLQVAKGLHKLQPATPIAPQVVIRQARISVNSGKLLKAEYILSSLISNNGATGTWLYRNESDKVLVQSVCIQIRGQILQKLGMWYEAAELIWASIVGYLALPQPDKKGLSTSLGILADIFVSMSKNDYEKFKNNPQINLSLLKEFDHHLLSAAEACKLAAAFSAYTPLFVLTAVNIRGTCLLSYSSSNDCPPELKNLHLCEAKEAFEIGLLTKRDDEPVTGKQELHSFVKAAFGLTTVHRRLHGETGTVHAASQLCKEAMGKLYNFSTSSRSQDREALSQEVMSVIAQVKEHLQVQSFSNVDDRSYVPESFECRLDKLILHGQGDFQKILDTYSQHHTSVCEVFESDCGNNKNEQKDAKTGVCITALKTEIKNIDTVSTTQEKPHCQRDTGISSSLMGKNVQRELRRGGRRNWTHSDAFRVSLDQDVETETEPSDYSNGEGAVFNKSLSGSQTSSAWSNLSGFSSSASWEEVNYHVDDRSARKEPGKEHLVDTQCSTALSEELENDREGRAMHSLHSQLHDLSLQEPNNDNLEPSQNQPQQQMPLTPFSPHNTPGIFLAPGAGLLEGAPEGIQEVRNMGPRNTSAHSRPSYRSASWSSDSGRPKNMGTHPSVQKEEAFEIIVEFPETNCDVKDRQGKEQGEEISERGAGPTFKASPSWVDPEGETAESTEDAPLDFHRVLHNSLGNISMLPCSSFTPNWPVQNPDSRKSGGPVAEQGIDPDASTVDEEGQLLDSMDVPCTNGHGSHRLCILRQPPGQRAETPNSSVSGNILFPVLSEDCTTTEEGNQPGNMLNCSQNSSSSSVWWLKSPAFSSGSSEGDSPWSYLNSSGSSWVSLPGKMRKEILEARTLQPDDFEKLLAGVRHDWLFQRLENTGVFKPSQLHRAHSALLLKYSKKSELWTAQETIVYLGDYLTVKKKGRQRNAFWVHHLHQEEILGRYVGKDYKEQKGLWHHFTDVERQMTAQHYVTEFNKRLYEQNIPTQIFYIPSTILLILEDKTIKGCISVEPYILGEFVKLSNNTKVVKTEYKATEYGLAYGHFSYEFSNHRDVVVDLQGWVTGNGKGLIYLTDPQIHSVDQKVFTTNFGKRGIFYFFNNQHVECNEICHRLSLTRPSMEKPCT

C#C[C@@](C)(c1ccc(Cl)cc1)c1csc(NC(=O)N2CC(CO)C2)n1 [A258, (S)-N-(4-(2-(4-chlorophenyl)but-3-yn-2-yl)thiazol-2-yl)-3-(hydroxymethyl)azetidine-1-carboxamide]
pIC50 [1]: 7.24

C#CC(C)(c1ccc(Cl)cc1)c1csc(NC(=O)c2ccc(N3CCNCC3)c(OC)c2)n1 (stereo not drawn) [B066, N-(4-(2-(4-chlorophenyl)but-3-yn-2-yl)thiazol-2-yl)-3-methoxy-4-(piperazin-1-yl)benzamide]
pIC50 [1, 6]: 7.54

COc1ccc(C(C)(C)c2csc(NC(=O)NCc3cc(F)c(C4CCNCC4)c(F)c3)n2)cc1 [A151, 1-(3,5-difluoro-4-(piperidin-4-yl)benzyl)-3-(4-(2-(4-methoxyphenyl)propan-2-yl)thiazol-2-yl)urea hydrochloride]
pIC50 ([2]; Homo sapiens, HEK293): 6.02

COc1ccc(C(C)(C)c2csc(NC(=O)N3CC(c4ccc(N5CCNCC5)cc4)C3)n2)cc1 [A233, N-(4-(2-(4-methoxyphenyl)propan-2-yl)thiazol-2-yl)-3-(4-(piperazin-1-yl)phenyl)azetidine-1-carboxamide]
pIC50 ([2]; Homo sapiens, HEK293): 6.48

COc1ccc(C(C)(C)c2csc(NC(=O)NCc3cc(F)c(N4CCNCC4)cc3F)n2)cc1 [A231, 1-(2,5-difluoro-4-(piperazin-1-yl)benzyl)-3-(4-(2-(4-methoxyphenyl)propan-2-yl)thiazol-2-yl)urea hydrochloride]
pIC50 ([2]; Homo sapiens, HEK293): 5.47

C#C[C@@](C)(c1ccc(Cl)cc1)c1csc(NC(=O)c2c(F)cc(N3CCNCC3)cc2F)n1 [C008, (S)-N-(4-(2-(4-chlorophenyl)but-3-yn-2-yl)thiazol-2-yl)-2,6-difluoro-4-(piperazin-1-yl)benzamide]
mRNA expressions of PBMC CCL-7, CXCL-1, CXCL-10, CXCL-11, IL-1β, TNF-α and IL-6 [3]: significantly decreased
mRNA expression of aorta IL-6, CXCL-1, CXCL-10, CCL-2 [4]: significantly decreased
mRNA expression of cardiac muscle TNF-a, IL-1b, IL-6, CXCL-1, CXCL-10, CXCL-11, CCL-2 and CCL-5 [4]: significantly decreased
mRNA expression of coronary artery TNF-α, CXCL-1, CCL-2 and CCL-7 [4]: significantly decreased
pIC50 [5]: 7.82

COc1ccc(C(C)(C)c2csc(NC(=O)NCc3ccc(N4CCC(N)C4)nc3)n2)cc1 (stereo not drawn) [A199, 1-((6-(3-aminopyrrolidin-1-yl)pyridin-3-yl)methyl)-3-(4-(2-(4-methoxyphenyl)propan-2-yl)thiazol-2-yl)urea]
pIC50 ([2]; Homo sapiens, HEK293): 6.34

C#C[C@@](C)(c1ccc(OC)cc1)c1csc(NC(=O)N2CC(CO)C2)n1 [A256, (S)-3-(hydroxymethyl)-N-(4-(2-(4-methoxyphenyl)but-3-yn-2-yl)thiazol-2-yl)azetidine-1-carboxamide]
pIC50 [1]: 7.37

COc1ccc(C(C)(C)c2csc(NC(=O)NCc3cnccn3)n2)cc1 [A007, 1-(4-(2-(4-methoxyphenyl)propan-2-yl)thiazol-2-yl)-3-(pyrazin-2-ylmethyl)urea]
pIC50 [1]: 7.04
pIC50 ([2]; Homo sapiens, HEK293): 5.25

COc1ccc(C(C)(C)c2csc(NC(=O)NCCCCNc3ccccc3)n2)cc1 [A147, 1-(4-(2-(4-methoxyphenyl)propan-2-yl)thiazol-2-yl)-3-(4-(phenylamino)butyl)urea]
pIC50 [1]: 6.63

C#C[C@](C)(c1ccc(OC)cc1)c1csc(NC(=O)N2CC(CO)C2)n1 [A255, (R)-3-(hydroxymethyl)-N-(4-(2-(4-methoxyphenyl)but-3-yn-2-yl)thiazol-2-yl)azetidine-1-carboxamide]
pIC50 [1]: 6.96

C#C[C@@](C)(c1ccc(Cl)cc1)c1csc(NC(=O)NCCO)n1 [A176, (S)-1-(4-(2-(4-chlorophenyl)but-3-yn-2-yl)thiazol-2-yl)-3-(2-hydroxyethyl)urea]
mRNA expressions of PBMC CCL-2, CCL-7, CXCL-1, CXCL-10, CXCL-11 and IL-1β [3]: significantly decreased
pIC50 [5]: 7.01

C#CC(C)(c1ccc(Cl)cc1)c1csc(NC(=O)N2CCc3cc(N4CCNCC4)ccc3C2)n1 (stereo not drawn) [A281]
pIC50 [2]: 6.07

C#CC(C)(c1ccc(Cl)cc1)c1csc(NC(=O)c2ccc(N3CCNCC3)cc2F)n1 (stereo not drawn) [B065, N-(4-(2-(4-chlorophenyl)but-3-yn-2-yl)thiazol-2-yl)-2-fluoro-4-(piperazin-1-yl)benzamide]
pIC50 [1, 6]: 7.47

C#CC(C)(c1ccc(Br)cc1)c1csc(NC(=O)NCCN2CCNCC2)n1 (stereo not drawn) [A239, 1-(4-(2-(4-bromophenyl)but-3-yn-2-yl)thiazol-2-yl)-3-(2-(piperazin-1-yl)ethyl)urea]
pIC50 [1]: 7.70

C#C[C@](C)(c1ccc(Cl)cc1)c1csc(NC(=O)c2ccc(N3CCNCC3)cc2)n1 (stereo in doubt) [B092, N-(4-(2-(4-chlorophenyl)but-3-yn-2-yl)thiazol-2-yl)-4-(piperazin-1-yl)benzamide]
pIC50 [1, 6]: 6.66

C#CC(C)(c1ccc(OC)cc1)c1csc(NC(=O)NC(C)c2ccc(N3CCNCC3)cc2)n1 (stereo not drawn) [A234, 1-(4-(2-(4-methoxyphenyl)but-3-yn-2-yl)thiazol-2-yl)-3-(1-(4-(piperazin-1-yl)phenyl)ethyl)urea]
pIC50 [1]: 7.44

C#C[C@@](C)(c1ccc(F)cc1)c1csc(NC(=O)NCCO)n1 (stereo in doubt) [A283, 1-(4-(2-(4-fluorophenyl)but-3-yn-2-yl)thiazol-2-yl)-3-(2-hydroxyethyl)urea]
pIC50 [1]: 6.26

C#C[C@](C)(c1ccc(Cl)cc1)c1csc(NC(=O)N2CC(CO)C2)n1 [A257, (R)-N-(4-(2-(4-chlorophenyl)but-3-yn-2-yl)thiazol-2-yl)-3-(hydroxymethyl)azetidine-1-carboxamide]
pIC50 [1]: 6.61

CC(C)(c1ccc(I)cc1)c1csc(NC(=O)NCc2cnc(N3CCNCC3)nc2)n1 [A178, 1-(4-(2-(4-iodophenyl)propan-2-yl)thiazol-2-yl)-3-((2-(piperazin-1-yl)pyrimidin-5-yl)methyl)urea]
pIC50 [1]: 7.38

COc1ccc(C(C)(CO)c2csc(NC(=O)NC(C)c3ccc(N4CCNCC4)cc3)n2)cc1 (stereo not drawn) [A235, 1-(4-(1-hydroxy-2-(4-methoxyphenyl)propan-2-yl)thiazol-2-yl)-3-(1-(4-(piperazin-1-yl)phenyl)ethyl)urea]
pIC50 [1]: 7.21

CC(C)(c1ccc(Br)cc1)c1csc(NC(=O)NCc2cccc(N3CCNCC3)c2)n1 [A005, 1-(4-(2-(4-bromophenyl)propan-2-yl)thiazol-2-yl)-3-(3-(piperazin-1-yl)benzyl)urea]
pIC50 [1]: 7.01
pIC50 ([2]; Homo sapiens, HEK293): 5.50

C#C[C@@](C)(c1ccc(Cl)cc1)c1csc(NC(=O)c2ccc(N3CCNCC3)cc2)n1 (stereo in doubt) [B093, N-(4-(2-(4-chlorophenyl)but-3-yn-2-yl)thiazol-2-yl)-4-(piperazin-1-yl)benzamide]
pIC50 [1, 6]: 7.37
